Numbers after ± are expanded uncertainties.
Tests used:
[1] = Boiling temperature at pressure P; conditions: 101.3 kPa; Liquid; Ebulliometric method (Recirculating still)
[2] = refractive index (Na D-line) (dimensionless); conditions: 298.15 K; 101.33 kPa; Liquid; Standard Abbe refractometry
[3] = 298.15 K; 101.33 kPa; Liquid; Pycnometric method

Row | Boiling temperature at pressure P [1] [°C] | refractive index [2] | mass density [3] [kg/m3] | SMILES
1 | 82.36 ± 0.16 | 1.3757 ± 0.0004 | 782 ± 2 | CC(C)O [propan-2-ol]
2 | 78.27 ± 0.16 | 1.3596 ± 0.0004 | 786 ± 2 | CCO [ethanol]
3 | 111.97 ± 0.16 | 1.3872 ± 0.0004 | 867 ± 2 | CCC(C)OC(C)=O (configuration not stated) [1-methylpropyl ethanoate]
4 | 97.17 ± 0.16 | 1.3842 ± 0.0004 | 802 ± 2 | CCCO [propan-1-ol]

Source: the NIST ThermoML archive (doi:10.1021/acs.jced.7b00445)
